Results on 3 compounds are retold here after patent US20260000672A1, “HISTONE DEACETYLASE INHIBITORS FOR USE IN IMMUNOTHERAPY” (Viracta Subsidiary, Inc., priority 2016, published 2026).

Assay [1] deals with mouse fibroblasts. To be noted: cited from earlier work.
Assay [2] relates to breast cancer cell line MCF-7. To be noted: cited from earlier work.
Assay [3] relates to BALB/c splenocytes. As to the kind of experiment: FACS analysis of BALB/c splenocytes after 24 hours with test agents. The format is cell-based, mouse. The following applies: for CD45+ CD3+ / CD45+ CD3+ CD4+ / CD45+ CD3+ CD4+ CD25+ / CD45+ CD3+ CD4+ FoxP3+ / CD45+ CD3+ CD4+ FoxP3+, CD25+ / CD45+ CD3+ CD4+ FoxP3+, CD25− / CD45+ CD3+ CD4+ FoxP3− CD25+ / CD45± / Live: 24 hours. The text has this: FACS analysis consisted of the following markers: live/dead, CD45, CD3, CD4, CD25 and FOXP3.
For orientation: Flow cytometry measures light scatter and fluorescence of single cells or particles in a stream.

[4] abbreviates: 1 uM, n=5, mean (SD in the line below).

In the case of `CCCC(=O)O` [butyrate], in assay [1], the cell cycle entry was “block the cell cycle in the G1 phase”. In assay [2], the cellular proliferation result is “induces a block in cellular proliferation”.
For `O=C(NO)c1cnc(N2CC3C(C2)C3NCc2ccc3cc(F)ccc3n2)nc1` (stereo not shown) [VRx-3996, 2-(6-{[(6-Fluoroquinolin-2-yl)methyl]amino}-3-azabicyclo[3.1.0]hex-3-yl)-N-hydroxypyrimidine-5-carboxamide], in assay [3] (1 nM, n=5), the “CD45+ CD3+” value was determined as 46.9%, the “CD45+ CD3+ CD4+” value is reported as 32.4%, the “CD45+ CD3+ CD4+ CD25+” value is 7.93% and the “CD45+ CD3+ CD4+ FoxP3+” value was found to be 12%. Further, in assay [3] (1 nM, n=5), the “CD45+ CD3+ CD4+ FoxP3+, CD25+” value amounted to 6.2%; the “CD45+ CD3+ CD4+ FoxP3+, CD25−” value is recorded as 4.47%; the “CD45+ CD3+ CD4+ FoxP3− CD25+” value came out at 1.14%; the “CD45±” value is on record as 98.6%. Besides, the Live in assay [3] (1 nM, n=5) was 98.4%. Further, in assay [3] (100 nM, n=5), the “CD45+ CD3+” value came out at 94%, the “CD45+ CD3+ CD4+” value worked out at 75.3%, the “CD45+ CD3+ CD4+ CD25+” value came out at 1.89% and the “CD45+ CD3+ CD4+ FoxP3+” value is 1.62%. In assay [3] (100 nM, n=5), the “CD45+ CD3+ CD4+ FoxP3+, CD25+” value is recorded as 0.064%; the “CD45+ CD3+ CD4+ FoxP3+, CD25−” value was determined as 0.34%; the “CD45+ CD3+ CD4+ FoxP3− CD25+” value stood at 1.22%; the “CD45±” value was found to be 99.6%. This compound returned a Live in assay [3] (100 nM, n=5) of 91.4%. Moreover, in assay [3] (500 nM, n=5), the “CD45+ CD3+” value worked out at 94%, the “CD45+ CD3+ CD4+” value is reported as 80.6%, the “CD45+ CD3+ CD4+ CD25+” value came out at 3.03% and the “CD45+ CD3+ CD4+ FoxP3+” value was determined as 2.36%. Besides, in assay [3] (500 nM, n=5), the “CD45+ CD3+ CD4+ FoxP3+, CD25+” value was 0.22%; the “CD45+ CD3+ CD4+ FoxP3+, CD25−” value came to 0.47%; the “CD45+ CD3+ CD4+ FoxP3− CD25+” value is reported as 1.69%; the “CD45±” value was 99.5%. Further, the Live in assay [3] (500 nM, n=5) turned out to be 87.2%. Moreover, in assay [3] (1 uM, n=5), the “CD45+ CD3+” value is given as 94.7%, the “CD45+ CD3+ CD4+” value was 82.2%, the “CD45+ CD3+ CD4+ CD25+” value stood at 3.57% and the “CD45+ CD3+ CD4+ FoxP3+” value was 3.85%. Further, in assay [3] (1 uM, n=5), the “CD45+ CD3+ CD4+ FoxP3+, CD25+” value stood at 0.14%; the “CD45+ CD3+ CD4+ FoxP3+, CD25−” value came out at 0.8%; the “CD45+ CD3+ CD4+ FoxP3− CD25+” value amounted to 1.96%; the “CD45±” value was 99.6%. In assay [3] (setting [4]), this compound showed a Live of 84.7%. Moreover, the “reduction in FoxP3, CD25+ T cells” value in assay [3] (compared to entinostat at 1 μM) is about 47 fold. Further, in assay [3] (seen at least as low as), the “concentration at which the suppressive effect on FoxP3+, CD25+ T cells was seen” value was at most 100 nM. Besides, the “effect on CD4+, CD25+, and FoxP3+ regulatory cells” value in assay [3] (striking when compared to entinostat) was “specifically reduces”.
As to `Nc1ccccc1NC(=O)c1ccc(CNC(=O)OCc2cccnc2)cc1` [Entinostat, reference compound], in assay [3] (1 uM, n=5), the “CD45+ CD3+ CD4+” value came to 38.5%; the “CD45+ CD3+ CD4+ CD25+” value is on record as 10.4%; the “CD45+ CD3+ CD4+ FoxP3+” value is listed as 10.1%; the “CD45+ CD3+ CD4+ FoxP3+, CD25+” value is on record as 5.12%. In assay [3] (1 uM, n=5), the “CD45+ CD3+ CD4+ FoxP3+, CD25−” value is 2.33%; the “CD45+ CD3+ CD4+ FoxP3− CD25+” value worked out at 4.57%; the “CD45±” value worked out at 99.1%. In assay [3] (setting [4]), this compound gave a Live of 97.6%.
